Assay results as given in publication PMC13210772, “Dual FLT3/MAPK14 Proteolysis-Targeting Chimera (PROTAC) Induces Potent Acute Myeloid Leukemia Cell Death” (Pharmaceuticals, 2026).

Assays:
[1] = test system: MOLM-13; design: method as in PMID 30427680, PMID 34959180, PMID 34694800, PMID 36332882, PMID 38655686; settings: reported FLT3 PROTACs, Figure 1; cited from earlier work
[2] = test system: MV4-11; design: method as in PMID 30427680, PMID 34959180, PMID 34694800, PMID 36332882, PMID 38655686; settings: reported FLT3 PROTACs, Figure 1; cited from earlier work
[3] = molecular target: CSNK1D (Homo sapiens, UniProt P48730); assay: NanoBRET CELLinib128
Sequence of CSNK1D (P48730 whole entry): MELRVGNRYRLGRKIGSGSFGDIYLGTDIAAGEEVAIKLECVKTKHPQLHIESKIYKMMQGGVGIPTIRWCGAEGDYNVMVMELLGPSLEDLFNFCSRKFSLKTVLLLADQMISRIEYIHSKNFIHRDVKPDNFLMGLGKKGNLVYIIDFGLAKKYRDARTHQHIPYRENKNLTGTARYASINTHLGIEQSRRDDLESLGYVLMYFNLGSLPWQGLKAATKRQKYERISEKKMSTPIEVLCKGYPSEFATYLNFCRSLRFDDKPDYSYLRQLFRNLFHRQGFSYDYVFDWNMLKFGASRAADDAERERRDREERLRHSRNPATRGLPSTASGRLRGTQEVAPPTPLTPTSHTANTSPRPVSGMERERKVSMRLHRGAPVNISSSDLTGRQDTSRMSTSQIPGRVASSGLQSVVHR

Row | Structure (SMILES) | IC50 [1] | IC50 [2] | EC50 [3]
1 | Cc1c(NC(=O)CN2CCN(CC3CCN(c4ccc5c(c4)C(=O)N(C4CCC(=O)NC4=O)C5=O)CC3)CC2)c[nH]c1/C=C1\C(=O)Nc2ccc(F)cc21 (centres unmarked) [A20] | 170 ± 3.4 nM | 39.9 ± 3.4 nM | 
2 | CCc1nc(C(N)=O)c(Nc2ccc(N3CCC(N4CCN(C(=O)COc5cccc6c5CN(C5CCC(=O)NC5=O)C6=O)CC4)CC3)c(OC)c2)nc1NC1CCOCC1 (centres unmarked) [LWY713] |  | 1.5 nM | 
3 | Cc1ncsc1-c1ccc(CNC(=O)[C@@H]2C[C@@H](O)CN2C(=O)[C@@H](NC(=O)CCOCCOCCOc2ccc3c(c2)sc2nc(-c4ccc(NC(=O)Nc5cc(C(C)(C)C)on5)cc4)cn23)C(C)(C)C)cc1 [Quizaritinib-based PROTAC] |  | 0.6 ± 0.08 nM | 
4 | CN[C@@H]1C[C@H]2O[C@@](C)([C@@H]1OC)n1c3ccccc3c3c4c(c5c6ccccc6n2c5c31)C(=O)NC4 [Staurosporine] |  |  | 10400 nM
5 | CCc1nc(C(N)=O)c(Nc2ccc(N3CCN(CCC4CCN(CC(=O)N[C@H](C(=O)N5C[C@H](O)C[C@H]5C(=O)N[C@@H](C)c5ccc(-c6scnc6C)cc5)C(C)(C)C)CC4)CC3)c(OC)c2)nc1NC1CCOCC1 [Z29] | 8 ± 0.2 nM | 5.5 ± 0.2 nM | 
6 | CNC(=O)c1cc(Cl)ccn1 [compound 1] | 10.1 ± 1 nM | 18.7 ± 2.1 nM | 
7 | Nc1ccc(O)cc1 [compound 2] | 9.5 ± 0.7 nM | 9.2 ± 1 nM | 
